Results from patent publication US10899723B2, “Heterocyclic containing cyclopropyl FXR modulators” (Hepagene Therapeutics (HK) Limited, priority 2016, dated 2021).

Tests used:
[1] = biological target: T1, FXR (Homo sapiens, UniProt Q96RI1); test: FXR Transactivation Assay (pBIND-FXR / pGL4.35 luciferase reporter in HEK293T); format: cell-based; settings: HEK293T cells
T1 construct: expressed in transfected cells; host or cells: HEK293T
T1 sequence (Q96RI1 1-486): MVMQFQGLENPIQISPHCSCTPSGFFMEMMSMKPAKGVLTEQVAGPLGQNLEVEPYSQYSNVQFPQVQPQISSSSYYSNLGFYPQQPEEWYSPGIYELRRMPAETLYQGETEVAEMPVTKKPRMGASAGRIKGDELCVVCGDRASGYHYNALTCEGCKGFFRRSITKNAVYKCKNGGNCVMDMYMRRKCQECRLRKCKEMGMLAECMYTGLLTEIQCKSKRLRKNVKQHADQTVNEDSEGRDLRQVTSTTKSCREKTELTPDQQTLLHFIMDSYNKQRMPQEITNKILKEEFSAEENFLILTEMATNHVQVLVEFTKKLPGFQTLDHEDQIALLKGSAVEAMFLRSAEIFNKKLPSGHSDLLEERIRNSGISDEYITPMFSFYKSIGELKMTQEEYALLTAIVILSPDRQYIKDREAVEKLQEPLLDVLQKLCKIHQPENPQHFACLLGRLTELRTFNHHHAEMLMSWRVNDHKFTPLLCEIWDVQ
Protocol: FXR Transactivation Assay
pGL4.35 [luc2P/9XGAL4 UAS/Hygro]
DMEM medium, high glucose
Fetal Bovine Serum (FBS, heat-inactivated)
Penicillin-Streptomycin (10000 U/ml, 100 ml)
DMEM, High Glucose, HEPES, no Phenol Red
Opti-MEM® I Reduced Serum Medium
Steady-Glo™ Luciferase Assay System
TransIT-293 Transfection Reagent
GW4064 as a positive control
(§1) • 1. Hek293T cells were plated at 1.1*10^6/ml into a 100 mm dish. • 2. Cells were transfected with 8.4 μg of pBind-FXR, 1.26 μg of the reporter vector pGL4.35 (Promega). Cells were incubated at 37° C. under 5% CO2 atmosphere. • 3. All of compounds were 3-fold serial diluted from 10 mM stock for 10 doses in DMSO. • 4. Transfer compound dilutions into 384 well assay plates using liquid workstation. • 5. Seed 25 ul HEK293T cells into 384 well assay plate (prepared step 4) at 0.6*10^5/ml. Cells were incubated at 37° C. under 5% CO2 atmosphere overnight. • 6. Add 25 ul steady-Glo™ Luciferase Assay Reagent into each well of 384-well assay plate. • 7. Record the luminescence value on Envision 2104 plate reader. • 8. Calculate EC50 by fitting % Activity values and log of compound concentrations to nonlinear regression (dose response−variable slope) with Graphpad 5.0. FXR Coactivator Assay Reagents: LanthaScreen™ TR-FRET Farnesoid X Receptor Coactivator Assay GW4064 as a positive control Process: • 1. All of compounds were 3-fold serial diluted from 10 mM stock for 10 doses in DMSO. • 2. Dilute each 100× agonist serial dilution to 2× using Complete Coregulator buffer G. • 3. Transfer 10 μl of each of the 2× agonist serial dilutions to 384 well assay plates. • 4. […] Incubate at room temperature protected from light. • 7. Read the plate at wavelengths of 520 nm and 495 nm on Envision 2104 plate reader. • 8. Calculate the TR-FRET ratio by dividing the emission signal at 520 nm by the emission signal at 495 nm. • 9. Calculate EC50 by fitting % Activity values and log of compound concentrations to nonlinear regression (dose response−variable slope) with Graphpad 5.0.

[2] = biological target: T2, FXR-LBD (Homo sapiens, UniProt Q96RI1); test: FXR Coactivator Assay (LanthaScreen TR-FRET); format: biochemical
T2 construct: Add 5 μl of 4×FXR-LBD to 384 well assay plates; purchased
T2 sequence (Q96RI1 262-486 limits assumed): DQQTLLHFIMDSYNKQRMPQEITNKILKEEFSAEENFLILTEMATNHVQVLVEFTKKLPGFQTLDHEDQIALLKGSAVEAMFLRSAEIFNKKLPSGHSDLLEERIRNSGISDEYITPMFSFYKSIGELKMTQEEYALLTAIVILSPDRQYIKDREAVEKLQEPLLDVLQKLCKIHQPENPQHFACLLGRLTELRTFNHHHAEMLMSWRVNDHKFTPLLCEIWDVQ
Protocol: as §1

Row | SMILES | EC50 [1] | EC50 [2]
1 | CC(C)c1onc(-c2c(Cl)cccc2Cl)c1COc1ccc(C2CC2(C)c2cncc(C(=O)O)c2)c(Cl)c1 (single isomer, unassigned) [IV-05-1, 5-[2-(2-Chloro-4-[[3-(2,6-dichlorophenyl)-5-(propan-2-yl)-1,2-oxazol-4-yl]methoxy]phenyl)-1-methylcyclopropyl] pyridine-3-carboxylic Acid] | 10 to 100 nM | 10 to 100 nM
2 | CC(C)c1onc(-c2c(Cl)cccc2Cl)c1COc1ccc(C2CC2(C)c2cncc(C(=O)O)c2)c(Cl)c1 (single isomer, unassigned) [IV-05-2, 5-[2-(2-Chloro-4-[[3-(2,6-dichlorophenyl)-5-(propan-2-yl)-1,2-oxazol-4-yl]methoxy]phenyl)-1-methylcyclopropyl] pyridine-3-carboxylic Acid] | 101 to 400 nM | 10 to 100 nM
3 | N#CC1(c2ccc(OCc3c(-c4c(Cl)cccc4Cl)noc3C3CC3)cc2Cl)CC1c1cccc(C(=O)O)c1 (single isomer, unassigned) [VII-03-1, 3-[2-(2-Chloro-4-[[5-cyclopropyl-3-(2,6-dichlorophenyl)-1,2-oxazol-4-yl]methoxy]phenyl)-2-cyanocyclopropyl] benzoic Acid] | 101 to 400 nM | 10 to 100 nM
4 | CC(C)c1onc(-c2c(Cl)cccc2Cl)c1COc1ccc(C2CC2(C#N)c2cccc(C(=O)O)c2)c(Cl)c1 (stereo not drawn) [Compound V-02] | 101 to 400 nM | 10 to 100 nM
5 | CC(C)c1onc(-c2c(Cl)cccc2Cl)c1COc1ccc(C2CC2(C)c2ccc(C(=O)O)cc2)c(Cl)c1 (stereo not drawn) [IV-01] | 401 to 5000 nM | 101 to 400 nM
6 | CC(C)c1onc(-c2c(Cl)cccc2Cl)c1COc1ccc(C2CC2(C)c2cccc(C(=O)O)c2)c(Cl)c1 (stereo not drawn) [IV-02] | 101 to 400 nM | 10 to 100 nM
7 | CC1(c2cccc(C(=O)O)c2)CC1c1ccc(OCc2c(-c3c(Cl)cccc3Cl)noc2C2CC2)cc1Cl (stereo not drawn) [IV-03] | 101 to 400 nM | 10 to 100 nM
8 | CC(C)c1onc(-c2c(Cl)cccc2Cl)c1COc1ccc(C2CC2(C)c2cncc(C(=O)O)c2)c(Cl)c1 (stereo not drawn) [IV-05, 5-[2-(2-Chloro-4-[[3-(2,6-dichlorophenyl)-5-(propan-2-yl)-1,2-oxazol-4-yl]methoxy]phenyl)-1-methylcyclopropyl] pyridine-3-carboxylic Acid] | 10 to 100 nM | 10 to 100 nM
9 | CC1(c2cncc(C(=O)O)c2)CC1c1ccc(OCc2c(-c3c(Cl)cccc3Cl)noc2C2CC2)cc1Cl (stereo not drawn) [IV-06, 5-[2-(2-Chloro-4-[[5-cyclopropyl-3-(2,6-dichlorophenyl)-1,2-oxazol-4-yl]methoxy]phenyl)-1-methylcyclopropyl] pyridine-3-carboxylic Acid] | 10 to 100 nM | 10 to 100 nM
10 | COc1cc(C(=O)O)cc2sc(C3(C)CC3c3ccc(OCc4c(-c5c(Cl)cccc5Cl)noc4C4CC4)cc3Cl)nc12 (stereo not drawn) [IV-15, 2-[2-(2-Chloro-4-[[5-cyclopropyl-3-(2,6-dichlorophenyl)-1,2-oxazol-4-yl]methoxy]phenyl)-1-methylcyclopropyl]-4-methoxy-1,3-benzothiazole-6-carboxylic Acid] | 101 to 400 nM | 10 to 100 nM
11 | CC(C)c1onc(-c2c(Cl)cccc2Cl)c1COc1ccc(C2CC2(C)c2cc(C(=O)O)nn2C(C)C)c(Cl)c1 (stereo not drawn) [IV-20] | 101 to 400 nM | 10 to 100 nM

Continued, values first:

Row | EC50 [1] | EC50 [2] | SMILES
12 | 101 to 400 nM | 10 to 100 nM | CC(C)c1onc(-c2c(Cl)cccc2Cl)c1COc1ccc(C2(C)CC2c2ccc(C(=O)O)cc2)c(Cl)c1 (stereo not drawn) [VI-01, 4-(2-(2-Chloro-4-((3-(2,6-dichlorophenyl)-5-isopropylisoxazol-4-yl)methoxy)phenyl)-2-methylcyclopropyl) benzoic Acid]
13 | 10 to 100 nM | 10 to 100 nM | CC(C)c1onc(-c2c(Cl)cccc2Cl)c1COc1ccc(C2(C)CC2c2cccc(C(=O)O)c2)c(Cl)c1 (stereo not drawn) [VI-02]
14 | 10 to 100 nM | 10 to 100 nM | CC(C)c1onc(-c2c(Cl)cccc2Cl)c1COc1ccc(C2(C)CC2c2cncc(C(=O)O)c2)c(Cl)c1 (stereo not drawn) [VI-04, 5-[2-(2-Chloro-4-[[3-(2,6-dichlorophenyl)-5-(propan-2-yl)-1,2-oxazol-4-yl]methoxy]phenyl)-2-methylcyclopropyl] pyridine-3-carboxylic Acid]
15 | 10 to 100 nM | 10 to 100 nM | CC1(c2ccc(OCc3c(-c4c(Cl)cccc4Cl)noc3C3CC3)cc2Cl)CC1c1cncc(C(=O)O)c1 (stereo not drawn) [VI-05]
16 | 401 to 5000 nM | 10 to 100 nM | CC(C)c1onc(-c2c(Cl)cccc2Cl)c1COc1ccc(C2(C#N)CC2c2ccc(C(=O)O)cc2)c(Cl)c1 (stereo not drawn) [VII-01]
17 | 101 to 400 nM | 10 to 100 nM | CC(C)c1onc(-c2c(Cl)cccc2Cl)c1COc1ccc(C2(C#N)CC2c2cccc(C(=O)O)c2)c(Cl)c1 (stereo not drawn) [VII-02, 3-[2-(2-Chloro-4-[[3-(2,6-dichlorophenyl)-5-(propan-2-yl)-1,2-oxazol-4-yl]methoxy]phenyl)-2-cyanocyclopropyl] benzoic Acid]
18 | 10 to 100 nM | 10 to 100 nM | N#CC1(c2ccc(OCc3c(-c4c(Cl)cccc4Cl)noc3C3CC3)cc2Cl)CC1c1cccc(C(=O)O)c1 (stereo not drawn) [VII-03, 3-[2-(2-Chloro-4-[[5-cyclopropyl-3-(2,6-dichlorophenyl)-1,2-oxazol-4-yl]methoxy]phenyl)-2-cyanocyclopropyl] benzoic Acid]
